# Data as given in US11344601B2, “Tumor microenvironment-related target TAK1 and application thereof in inhibition of tumor” (Shanghai Institutes for Biological Sciences, Chinese …, priority 2017, dated 2022).
# Assays:
# [1] = target: T1, ATM (Homo sapiens, UniProt Q13315); assay: p-ATM antibody-mediated IP of bleomycin-treated PSC27 cells (ATM-TRAF6 interaction); type: cell-based; settings: bleomycin-treated stromal cells
# T1 construct: endogenous in cells; host or cells: PSC27 human prostate stromal cells
# T1 sequence (Q13315 whole entry): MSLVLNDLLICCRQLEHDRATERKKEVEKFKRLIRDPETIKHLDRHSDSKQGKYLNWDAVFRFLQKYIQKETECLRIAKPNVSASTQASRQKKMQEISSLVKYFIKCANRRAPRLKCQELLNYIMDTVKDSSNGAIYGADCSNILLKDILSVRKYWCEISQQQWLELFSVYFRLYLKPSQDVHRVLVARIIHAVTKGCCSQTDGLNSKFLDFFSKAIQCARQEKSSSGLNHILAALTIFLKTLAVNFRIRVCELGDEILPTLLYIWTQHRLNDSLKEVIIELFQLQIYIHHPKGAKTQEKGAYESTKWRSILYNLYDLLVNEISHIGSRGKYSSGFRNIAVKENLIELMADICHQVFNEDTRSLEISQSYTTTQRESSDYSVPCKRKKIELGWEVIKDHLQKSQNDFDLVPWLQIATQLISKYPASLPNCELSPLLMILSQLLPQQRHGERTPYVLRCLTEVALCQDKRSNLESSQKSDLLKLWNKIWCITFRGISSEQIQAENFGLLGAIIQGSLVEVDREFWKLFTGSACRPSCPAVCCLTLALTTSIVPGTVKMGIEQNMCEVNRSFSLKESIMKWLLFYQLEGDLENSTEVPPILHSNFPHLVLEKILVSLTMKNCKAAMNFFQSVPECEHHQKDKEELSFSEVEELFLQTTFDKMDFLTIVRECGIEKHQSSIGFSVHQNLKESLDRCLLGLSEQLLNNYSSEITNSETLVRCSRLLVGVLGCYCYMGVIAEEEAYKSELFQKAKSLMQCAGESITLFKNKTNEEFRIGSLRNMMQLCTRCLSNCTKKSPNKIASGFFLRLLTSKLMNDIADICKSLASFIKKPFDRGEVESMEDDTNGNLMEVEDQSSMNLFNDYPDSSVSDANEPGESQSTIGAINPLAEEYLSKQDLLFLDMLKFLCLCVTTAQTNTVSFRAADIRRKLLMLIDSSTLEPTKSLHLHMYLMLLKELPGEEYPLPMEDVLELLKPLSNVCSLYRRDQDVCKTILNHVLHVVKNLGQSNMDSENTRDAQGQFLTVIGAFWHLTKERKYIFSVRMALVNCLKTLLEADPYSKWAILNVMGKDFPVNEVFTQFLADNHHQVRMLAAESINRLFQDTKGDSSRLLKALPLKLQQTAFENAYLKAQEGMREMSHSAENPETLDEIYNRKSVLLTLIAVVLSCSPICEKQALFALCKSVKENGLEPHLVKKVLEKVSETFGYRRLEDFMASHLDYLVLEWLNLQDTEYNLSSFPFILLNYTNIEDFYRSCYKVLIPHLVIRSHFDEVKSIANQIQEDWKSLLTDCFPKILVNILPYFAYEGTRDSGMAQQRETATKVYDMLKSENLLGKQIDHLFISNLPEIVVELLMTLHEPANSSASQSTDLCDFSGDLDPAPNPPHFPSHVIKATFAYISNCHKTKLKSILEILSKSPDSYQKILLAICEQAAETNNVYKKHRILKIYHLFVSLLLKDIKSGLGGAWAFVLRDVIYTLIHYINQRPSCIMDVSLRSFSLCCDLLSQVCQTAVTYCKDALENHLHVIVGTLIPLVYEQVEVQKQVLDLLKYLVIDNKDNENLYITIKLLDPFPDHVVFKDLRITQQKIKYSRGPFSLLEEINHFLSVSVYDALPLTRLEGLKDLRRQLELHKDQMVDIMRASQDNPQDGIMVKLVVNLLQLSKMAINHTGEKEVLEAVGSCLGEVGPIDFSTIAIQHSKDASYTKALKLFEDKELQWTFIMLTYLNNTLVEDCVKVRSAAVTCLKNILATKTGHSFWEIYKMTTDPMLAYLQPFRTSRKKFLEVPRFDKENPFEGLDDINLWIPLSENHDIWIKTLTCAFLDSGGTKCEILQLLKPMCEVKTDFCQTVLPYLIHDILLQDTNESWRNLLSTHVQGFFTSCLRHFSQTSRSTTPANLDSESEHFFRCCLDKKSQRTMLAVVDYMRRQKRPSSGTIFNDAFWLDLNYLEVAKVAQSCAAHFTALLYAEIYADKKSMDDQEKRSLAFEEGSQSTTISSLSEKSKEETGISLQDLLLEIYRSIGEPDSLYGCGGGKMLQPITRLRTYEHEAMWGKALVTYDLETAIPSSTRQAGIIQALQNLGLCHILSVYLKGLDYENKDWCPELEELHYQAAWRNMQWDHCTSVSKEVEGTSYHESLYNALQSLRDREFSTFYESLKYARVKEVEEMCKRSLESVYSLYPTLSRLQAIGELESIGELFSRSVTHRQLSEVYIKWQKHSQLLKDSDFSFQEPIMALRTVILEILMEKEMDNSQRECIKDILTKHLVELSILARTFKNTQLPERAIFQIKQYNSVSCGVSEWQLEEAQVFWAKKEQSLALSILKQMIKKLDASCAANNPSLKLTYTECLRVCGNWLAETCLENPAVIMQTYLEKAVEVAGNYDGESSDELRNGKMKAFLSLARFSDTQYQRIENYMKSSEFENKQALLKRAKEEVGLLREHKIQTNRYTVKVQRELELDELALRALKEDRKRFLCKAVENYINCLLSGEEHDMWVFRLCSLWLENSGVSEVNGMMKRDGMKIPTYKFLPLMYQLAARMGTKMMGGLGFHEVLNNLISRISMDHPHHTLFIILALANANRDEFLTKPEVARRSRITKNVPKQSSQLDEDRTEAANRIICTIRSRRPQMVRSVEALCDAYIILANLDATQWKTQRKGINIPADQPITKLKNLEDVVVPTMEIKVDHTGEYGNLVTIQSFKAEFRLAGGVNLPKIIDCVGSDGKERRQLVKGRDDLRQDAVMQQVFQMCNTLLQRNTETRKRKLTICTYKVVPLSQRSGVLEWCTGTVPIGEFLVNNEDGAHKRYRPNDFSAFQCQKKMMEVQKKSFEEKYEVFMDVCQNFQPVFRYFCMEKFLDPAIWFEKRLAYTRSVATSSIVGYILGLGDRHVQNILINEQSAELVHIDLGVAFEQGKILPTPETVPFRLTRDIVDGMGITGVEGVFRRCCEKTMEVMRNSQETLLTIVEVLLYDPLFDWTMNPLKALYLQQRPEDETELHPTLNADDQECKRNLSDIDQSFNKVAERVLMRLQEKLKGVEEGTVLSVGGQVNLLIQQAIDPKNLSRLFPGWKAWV
# Method: Phosphorylated ATM (p-ATM) antibody-mediated IP analysis. The expression levels of TRAF6, p-ATM and ATM in IP precipitates were detected by Western blot. TRAF6, a loading control. PSC27 was treated with bleomycin (50 ug/ml) and then with the ATM small molecule inhibitor KU55933 (KU, 10 μM).
# [2] = system: NSCLC cell line A549/stromal cell line W138 xenograft tumors; assay: NSCLC xenograft (A549/W138) preclinical chemotherapy, terminal tumor volume; type: in vivo, mice; settings: chemotherapy alone (group 6 vs group 5)
# Method: (§1) FIG. 83. Statistical comparative analysis of terminal tumor volumes in NSCLC tumors transplanted mice (NSCLC cell line A549/stromal cell line […]1 for administration alone or in combination with bleomycin-based chemotherapy). […] All experimental mouse experiments were carried out in strict accordance with the relevant regulations of the Institutional animal care and use committee (IACUC) of the shanghai Institute of Life Sciences of the Chinese Academy of Sciences. ICR-SCID mice at an age of about 6 weeks (about 25 g in body weight) were used in this patent-related animal experiment. Stromal cells PSC27 and epithelial cells were mixed at a ratio of 1:4, with each implant containing 1.25×10^6 cells for tissue recombination. The transplant tumor was implanted into mice subcutaneously, and the animals were euthanized at the end of Week 8 after transplantation. The tumor volume was calculated according to the following formula: […] Similarly, lung and breast cancer xenograft tumors were formed by tissue recombination with A549 (non-small cell lung cancer cell line) and W138 (lung fibroblast line), MDA-MB-231 (triple negative breast cancer cell line) and HBF1203 (breast fibroblast line), respectively. In the preclinical chemotherapy trial, mice subcutaneously transplanted with tumors were fed standard experimental diet. […]
# [3] = system: BCa cell line MDA-MB-231/stromal cell line HBF1203 xenograft tumors; assay: BCa xenograft (MDA-MB-231/HBF1203) preclinical chemotherapy, terminal tumor volume; type: in vivo, mice; settings: chemotherapy alone (group 6 vs group 5), MDA-MB-231/HBF1203 tumors
# Method: as §1, with “84.” for “83.”, “BCa” for “NSCLC”, “(BCa” for “(NSCLC”, “MDA-MB-231/stromal” for “A549/stromal”, “combined” for “in combination”, “bleomycin for” for “bleomycin-based”
Molecule,interaction between activated ATM and TRAF6 [1],decrease in terminal tumor volume [2],decrease in terminal tumor volume [3]
O=c1cc(-c2cccc3c2Sc2ccccc2S3)oc(N2CCOCC2)c1 [KU55933],abolished,,
bleomycin,,38%,32%
